Among the data in ChEMBL document CHEMBL1147893, “Carbonic anhydrase inhibitors: the X-ray crystal structure of the adduct of N-hydroxysulfamide with isozyme II explains why this new zinc binding function is effective in the design of potent inhibitors” (Bioorg Med Chem Lett, 2007) are Kinact values, retold here.

Test [1] concerns the target Carbonic anhydrase 1 (Homo sapiens) (UniProt P00915).
Description: Inhibition of human recombinant carbonic anhydrase 1
In test [2] the target is Carbonic anhydrase 2 (Homo sapiens) (UniProt P00918).
Description: Inhibition of human recombinant carbonic anhydrase 2
In test [3] the target is Carbonic anhydrase 9 (Homo sapiens) (UniProt Q16790).
Description: Inhibition of human recombinant carbonic anhydrase 9 catalytic domain by CO2 hydrase method
In test [4] the target is Carbonic anhydrase 12 (Homo sapiens) (UniProt O43570).
Sequence of Carbonic anhydrase 12 (Homo sapiens) (O43570 whole entry): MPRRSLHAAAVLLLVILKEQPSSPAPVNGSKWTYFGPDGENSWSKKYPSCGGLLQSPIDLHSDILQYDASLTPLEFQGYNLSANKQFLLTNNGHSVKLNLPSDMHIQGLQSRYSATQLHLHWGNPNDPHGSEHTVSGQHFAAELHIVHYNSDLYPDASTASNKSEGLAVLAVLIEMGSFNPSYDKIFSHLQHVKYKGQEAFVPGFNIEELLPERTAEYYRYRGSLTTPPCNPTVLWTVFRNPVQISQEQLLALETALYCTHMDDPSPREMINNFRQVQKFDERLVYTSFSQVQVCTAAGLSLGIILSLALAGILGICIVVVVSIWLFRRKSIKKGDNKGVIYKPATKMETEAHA
Description: Inhibition of human recombinant carbonic anhydrase 12 catalytic domain by CO2 hydrase method

Sequence of Carbonic anhydrase 1 (Homo sapiens) (P00915 2-261 limits assumed): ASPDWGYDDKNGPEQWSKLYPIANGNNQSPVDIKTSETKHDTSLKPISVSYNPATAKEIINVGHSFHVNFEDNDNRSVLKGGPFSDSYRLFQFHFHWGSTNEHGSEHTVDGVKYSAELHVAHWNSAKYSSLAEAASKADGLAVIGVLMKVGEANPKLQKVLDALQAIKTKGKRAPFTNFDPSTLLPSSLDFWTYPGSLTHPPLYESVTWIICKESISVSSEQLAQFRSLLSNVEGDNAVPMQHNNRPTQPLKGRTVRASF

Turning to `NS(=O)(=O)O`, the Kinact in test [1] was 0.21 10^5nM; in test [2], 0.39 10^6nM; in test [3] it was 9.2 10^3nM; in test [4], 10.7 10^3nM.

For `O=S(=O)([O-])[O-].[Na+].[Na+]`, the Kinact was 6.3 10^6nM in test [1], > 300 10^6nM in test [2], > 300 10^6nM in test [3] and 7.7 10^5nM in test [4].
